The source of these data is ChEMBL document CHEMBL1151142, “Triterpenoids and Flavonoids from Hyptis albida” (J Nat Prod, 1990).

Structures are written as SMILES.

The test system of the data set is Artemia. The data set can be described thus: Toxicity against brine shrimp. Type of data set: organism-based. To be noted: in vivo.

In the case of `COc1ccc(-c2cc(=O)c3c(O)c(OC)c(OC)c(OC)c3o2)cc1` [GARDENIN B], the LC50 was above 700 ppm. The value for `CC1(C)CC[C@@]23CC[C@]4(C)[C@@](OC2=O)([C@@H]3C1)[C@H]1O[C@H]1[C@@H]1[C@@]2(C)CC[C@H](O)C(C)(C)[C@@H]2CC[C@]14C` was above 700 ppm; that for `CC1(C)CC[C@]2(C(=O)O)CC[C@]3(C)C(=CC[C@@H]4[C@@]5(C)CC[C@H](O)C(C)(C)[C@@H]5CC[C@]43C)[C@@H]2C1` [OLEANOLIC_ACID] was above 700 ppm.

Consider `CC1(C)CC[C@@]23CC[C@]4(C)[C@@](C=C[C@@H]5[C@@]6(C)CC[C@H](O)C(C)(C)[C@@H]6CC[C@]54C)(OC2=O)[C@@H]3C1`, for which the LC50 is reported as above 700 ppm. The value for `COc1ccc(-c2oc3cc(OC)cc(O)c3c(=O)c2OC)cc1` was above 700 ppm; that for `COc1ccc(-c2cc(=O)c3c(O)c(OC)c(O)c(OC)c3o2)cc1` [NEVADENSIN] was above 700 ppm. The value for `COc1ccc(-c2oc3cc(O)cc(O)c3c(=O)c2OC)cc1` [ERMANIN] was above 700 ppm; that for `C[C@H]1[C@H](C)CC[C@]2(C(=O)O)CC[C@]3(C)C(=CC[C@@H]4[C@@]5(C)CC[C@H](O)C(C)(C)[C@@H]5CC[C@]43C)[C@H]12` [URSOLIC ACID] was above 700 ppm; that for `C=C(C)[C@@H]1CC[C@]2(C(=O)O)CC[C@]3(C)[C@H](CC[C@@H]4[C@@]5(C)CC[C@H](O)C(C)(C)[C@@H]5CC[C@]43C)[C@@H]12` [BETULINIC ACID] was above 700 ppm. In the case of `CC(=O)O[C@H]1CC[C@]2(C)[C@H]3CC=C4[C@@H]5CC(C)(C)CC[C@]5(C(=O)O)CC[C@@]4(C)[C@]3(C)CC[C@H]2C1(C)C` [ACETYL OLEANOLIC ACID] it was above 700 ppm; in that of `CC1(C)CC[C@@]23CC[C@]4(C)[C@@](CC[C@@H]5[C@@]6(C)CC[C@H](O)C(C)(C)[C@@H]6CC[C@]54C)(OC2=O)[C@@H]3C1`, above 700 ppm; in that of `COc1ccc(-c2cc(=O)c3c(O)cc(OC)cc3o2)cc1` [APIGENIN DIMETHYLETHER], above 700 ppm.

Broadly, the LC50 is the concentration that kills 50% of the test population. Higher therefore signals a less lethal substance.
